The values below come from ChEMBL document CHEMBL1130735, “A paclitaxel analogue with a 2(3-->20)abeotaxane skeleton: synthesis and biological evaluation” (Bioorg Med Chem Lett, 1998).

Each structure is given as a SMILES string. ≈ marks a conversion by molar mass, not a printed value. Some results are limits rather than exact numbers.

Common to all, as to assay type: functional, cell-based
The nature of experiment [1]: Cytotoxicity was evaluated against MEL28 melanoma cells. As to conditions: Homo sapiens, SK-MEL-28.
A further experiment concerns HT-29. Nature of the experiment: Cytotoxicity was evaluated against HT-29 human colon adenocarcinoma cells.
Another experiment deals with P388. Nature of the experiment: Cytotoxicity was evaluated against P388 mouse lymphoma cells.
Experiment [2] can be described thus: Cytotoxicity was evaluated against […] cells.

In the case of `CC1=C2[C@@H](O)C(=O)[C@@]3(C)CC(C[C@H](OC(=O)c4ccccc4)[C@H](C[C@@H]1OC(=O)[C@H](O)[C@H](NC(=O)c1ccccc1)c1ccccc1)C2(C)C)[C@@H](O)C[C@@H]3O`, the IC50 (in experiment [1]; with HT-29; in the experiment on P388; in experiment [2]) was 6 mg/L (≈ 8.11 µM) in each case.
On to `CC(=O)O[C@H]1C[C@H]2[C@@H](OC(C)=O)/C=C3\C[C@](C)(C(=O)[C@H](O)C(=C1C)C2(C)C)[C@@H](O)C[C@@H]3O`, for which the IC50 (in experiment [1]; in the experiment with HT-29; in the experiment with P388; in experiment [2]) was more than 10 mg/L each time.
As to `CC(=O)O[C@H]1C(=O)[C@@]2(C)[C@H]([C@H](OC(=O)c3ccccc3)[C@]3(O)C[C@H](OC(=O)[C@H](O)[C@@H](NC(=O)c4ccccc4)c4ccccc4)C(C)=C1C3(C)C)[C@]1(OC(C)=O)CO[C@@H]1C[C@@H]2O` [PACLITAXEL], the IC50 in experiment [1] was 0.002 mg/L (≈ 0.00234 µM); with HT-29 it was 0.002 mg/L (≈ 0.00234 µM); with P388, 0.2 mg/L (≈ 0.234 µM); in experiment [2], 0.002 mg/L (≈ 0.00234 µM).
